Results published in ChEMBL document CHEMBL1201862, “PubChem BioAssay data set” (2004).
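Exposure lasted 48 hours, with cells grown in 96-well plates and compounds tested at five concentrations. Here, GI50 denotes the concentration required for 50% inhibition of growth.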 Calls of active or inactive are those of the source. No stated cut-off is given here; in the data, active = GI50 up to about 1.1 µM and inactive = higher.

What was measured:
Test in all cases: NCI tumour cell line growth inhibition, 48 h
[1] = system: A498
[2] = system: IGROV-1
[3] = system: MOLT-4
[4] = system: Hs-578T
[5] = system: MDA-N
[6] = system: NCI-H226
[7] = system: MCF7
[8] = system: K562
[9] = system: UACC-62
[10] = system: SR
[11] = system: RXF 393
[12] = system: NCI-H23
[13] = system: OVCAR-8
[14] = system: BT-549
[15] = system: MDA-MB-231
[16] = system: SK-MEL-5
[17] = system: RPMI-8226
[18] = system: HCT-15
[19] = system: MDA-MB-435
[20] = system: U-251
[21] = system: OVCAR-3
[22] = system: HOP-62
[23] = system: A549
[24] = system: EKVX
[25] = system: CAKI-1
[26] = system: OVCAR-5
[27] = system: SNB-19
[28] = system: SF-268
[29] = system: DU-145
[30] = system: M14
[31] = system: HT-29
[32] = system: PC-3
[33] = system: HCT-116
[34] = system: NCI/ADR-RES
[35] = system: SW-620
[36] = system: UACC-257
[37] = system: LOX IMVI
[38] = system: ACHN
[39] = system: OVCAR-4
[40] = system: HL-60
[41] = system: NCI-H460
[42] = system: SK-MEL-28
[43] = system: CCRF-CEM
[44] = system: KM12
[45] = system: SN12C
[46] = system: 786-0
[47] = system: SK-OV-3
[48] = system: NCI-H522
[49] = system: UO-31
[50] = system: HOP-92
[51] = system: SF-295
[52] = system: SF-539
[53] = system: T47D
[54] = system: Malme-3M
[55] = system: COLO 205
[56] = system: TK-10
[57] = system: SK-MEL-2
[58] = system: HCC 2998
[59] = system: SNB-75

## NC(=O)N/N=C1/CCC(O)CC1CC(=O)O (stereo not drawn)
[1]
  GI50: > 100 µM (inactive)
[2]
  GI50: > 100 µM (inactive)
[3]
  GI50: > 100 µM (inactive)
[4]
  GI50: > 100 µM (inactive)
[5]
  GI50: > 100 µM (inactive)
[6]
  GI50: > 100 µM (inactive)
[7]
  GI50: > 100 µM (inactive)
[8]
  GI50: > 100 µM (inactive)
[9]
  GI50: > 100 µM (inactive)
[10]
  GI50: 30.3 µM (inactive)
[11]
  GI50: > 100 µM (inactive)
[12]
  GI50: > 100 µM (inactive)
[13]
  GI50: > 100 µM (inactive)
[14]
  GI50: > 100 µM (inactive)
[15]
  GI50: > 100 µM (inactive)
[16]
  GI50: > 100 µM (inactive)
[17]
  GI50: > 100 µM (inactive)
[18]
  GI50: > 100 µM
[19]
  GI50: > 100 µM (inactive)
[20]
  GI50: > 100 µM (inactive)
[21]
  GI50: > 100 µM (inactive)
[22]
  GI50: > 100 µM (inactive)
[23]
  GI50: > 100 µM (inactive)
[24]
  GI50: > 100 µM (inactive)
[25]
  GI50: > 100 µM (inactive)
[26]
  GI50: > 100 µM (inactive)
[27]
  GI50: > 100 µM (inactive)
[28]
  GI50: > 100 µM (inactive)
[29]
  GI50: > 100 µM (inactive)
[30]
  GI50: > 100 µM (inactive)
[31]
  GI50: > 100 µM (inactive)
[32]
  GI50: > 100 µM (inactive)
[33]
  GI50: > 100 µM (inactive)
[34]
  GI50: > 100 µM (inactive)
[35]
  GI50: > 100 µM (inactive)
[36]
  GI50: > 100 µM (inactive)
[37]
  GI50: > 100 µM (inactive)
[38]
  GI50: > 100 µM (inactive)
[39]
  GI50: > 100 µM (inactive)
[40]
  GI50: 2.7 µM (inactive)
[41]
  GI50: > 100 µM (inactive)
[42]
  GI50: > 100 µM (inactive)
[43]
  GI50: 36.3 µM (inactive)
[44]
  GI50: > 100 µM (inactive)
[45]
  GI50: > 100 µM (inactive)
[46]
  GI50: > 100 µM (inactive)
[47]
  GI50: > 100 µM (inactive)
[48]
  GI50: > 100 µM (inactive)
[49]
  GI50: > 100 µM (inactive)
[50]
  GI50: > 100 µM (inactive)
[51]
  GI50: > 100 µM (inactive)
[52]
  GI50: > 100 µM (inactive)
[53]
  GI50: > 100 µM (inactive)
[54]
  GI50: > 100 µM (inactive)
[55]
  GI50: > 100 µM (inactive)
[56]
  GI50: > 100 µM (inactive)
[57]
  GI50: > 100 µM (inactive)

## CCOC(=O)c1cc2c([nH]1)c(O)cc1c2ccn1Cc1ccccc1
[1]
  GI50: 29.8 µM (inactive)
[2]
  GI50: 19.3 µM (inactive)
[3]
  GI50: 1.91 µM (inactive)
[4]
  GI50: 19.4 µM (inactive)
[5]
  GI50: 15.3 µM (inactive)
[6]
  GI50: 15.1 µM (inactive)
[7]
  GI50: 12.5 µM (inactive)
[8]
  GI50: 8.34 µM (inactive)
[9]
  GI50: 15.5 µM (inactive)
[58]
  GI50: 19 µM (inactive)
[10]
  GI50: 1.03 µM (active)
[11]
  GI50: 7.8 µM (inactive)
[12]
  GI50: 13.7 µM (inactive)
[13]
  GI50: 17.2 µM (inactive)
[14]
  GI50: 17.8 µM (inactive)
[15]
  GI50: 23.5 µM (inactive)
[16]
  GI50: 12.1 µM (inactive)
[17]
  GI50: 8.41 µM (inactive)
[18]
  GI50: 15.1 µM
[19]
  GI50: 16.9 µM (inactive)
[20]
  GI50: 16.7 µM (inactive)
[21]
  GI50: 14.6 µM (inactive)
[22]
  GI50: 17.7 µM (inactive)
[23]
  GI50: 13.7 µM (inactive)
[24]
  GI50: 12.8 µM (inactive)
[25]
  GI50: 22 µM (inactive)
[26]
  GI50: 17.7 µM (inactive)
[27]
  GI50: 14.2 µM (inactive)
[28]
  GI50: 19.5 µM (inactive)
[29]
  GI50: 17.8 µM (inactive)
[30]
  GI50: 23.6 µM (inactive)
[31]
  GI50: 16.6 µM (inactive)
[32]
  GI50: 16.1 µM (inactive)
[33]
  GI50: 11.6 µM (inactive)
[34]
  GI50: 17.3 µM (inactive)
[35]
  GI50: 18 µM (inactive)
[36]
  GI50: 19.7 µM (inactive)
[37]
  GI50: 14.4 µM (inactive)
[59]
  GI50: 22.2 µM (inactive)
[39]
  GI50: 19.9 µM (inactive)
[40]
  GI50: 13 µM (inactive)
[41]
  GI50: 19.5 µM (inactive)
[42]
  GI50: 17.5 µM (inactive)
[43]
  GI50: 10.8 µM (inactive)
[44]
  GI50: 10.3 µM (inactive)
[45]
  GI50: 20.2 µM (inactive)
[46]
  GI50: 18.1 µM (inactive)
[47]
  GI50: 20.7 µM (inactive)
[49]
  GI50: 14.9 µM (inactive)
[50]
  GI50: 13.5 µM (inactive)
[51]
  GI50: 15.8 µM (inactive)
[52]
  GI50: 19.4 µM (inactive)
[53]
  GI50: 2.85 µM (inactive)
[54]
  GI50: 18.5 µM (inactive)
[55]
  GI50: 21.4 µM (inactive)
[57]
  GI50: 20.4 µM (inactive)
